Assay results: US8168597B2, “Method for treating cystic fibrosis” (Inspire Pharmaceuticals, Inc., priority 2008, dated 2012)

System: patients with mild CF lung disease
Assay: Multi-center, double-blind, randomized efficacy and safety study; change in lung function (FEV1) from baseline to Week 24
Type: in vivo, human
Conditions: for FEV1 Change from baseline in Liters, Mean (Table 2): subgroups that did not take pulmozyme or inhaled antibiotics; for FEV1 Change from baseline in Liters, Mean (Table 3): pulmozyme/macrolide subgroups
Experimental: This is a multi-center, double-blind, randomized, efficacy and safety study of denufosol in patients with mild CF lung disease. Approximately 350 patients were enrolled and randomly assigned to receive one of two treatments, 60 mg denufosol TID or placebo TID, with approximately 175 patients assigned to each treatment group. Patients were administered study drug (denufosol) or placebo using the PARI LC STAR™ nebulizer and PART PRONEB Ultra™ compressor. At the end of the 24-week double-blind, placebo-controlled treatment period, placebo patients received 60 mg denufosol for a 24-week safety extension period. All patients on denufosol during the first 24 weeks continued to receive denufosol during the 24-week safety extension. Upon completion of study participation or discontinuation from study treatment, all patients were scheduled for a 1-week follow-up visit.
In general, CF patients took many medications as their usual standard of care. This study was designed to randomly assign patients either to denufosol or placebo on top of their usual standard of care. […] Patients were instructed whenever possible to use these medications consistently throughout the study.
All patients were instructed to inhale the study drug using normal tidal breathing via the PARI LC STAR™ reusable nebulizer and the PARI PRONEB™ Ultra compressor. A dose was considered complete after 15 minutes of inhalation or when the nebulizer sputters. Study drug was taken TID at the same time each day.
Primary efficacy endpoint was change in lung function, as measured by FEV1 (L), from baseline to Week 24 end point. Missing Week 24 data for patients who withdrew prior to Week 24 were imputed from the last available observation carried forward. Secondary efficacy endpoints included the following: time to first pulmonary exacerbation during the 24-week placebo-controlled treatment period; incidence of pulmonary exacerbations during the 24-week placebo-controlled treatment period; number of pulmonary exacerbations/time at risk (incidence density) during the 24-week placebo-controlled treatment period; change in lung function, as measured by FEV1 (L) from baseline to Weeks 4 and 12, and FVC (L) and FEF25%-75% (L/sec) from baseline to Weeks 4, 12, 24, and the end point. Other secondary efficacy endpoints include incidence of IV antibiotic use during the 24-week placebo-controlled treatment period; number of days of IV antibiotic use during the 24-week placebo-controlled treatment period; incidence of new use of antipseudomonal antibiotics during the 24-week placebo-controlled treatment period; incidence of hospitalizations/ER visits for a respiratory-related complaint during the 24-week placebo-controlled treatment period; number of days spent in the hospital for a respiratory-related complaint during the 24-week placebo-controlled treatment period; changes from baseline to Weeks 12 and 24 in Health-related Quality of Life as measured by the Cystic Fibrosis Questionnare and the Feeling Thermometer; and changes in utility assessment from baseline to Weeks 12 and 24 as measured by the Health Utilities Index; number of CF-related days lost from work or school during the 24-week placebo-controlled treatment period; and responses at Week 24 to the Patient Questionnaire.

Molecule | FEV1 Change from baseline in Liters, Mean (Table 2) (baseline to Week 24) [L] | adjusted means for change in lung function, as measured by FEV1, from baseline to Week 24 (macrolide users (97% azithromycin), 60 mg denufosol TID by inhalation, p-value 0.047 vs placebo group) [L] | improvement in FEV1 change in the macrolide group when treated with denufosol (vs placebo group) (macrolide users, baseline to Week 24) | FEV1 Change from baseline in Liters, Mean (Table 3) (baseline to Week 24) [L]
Nc1ccn([C@H]2C[C@H](O)[C@@H](COP(=O)(O)OP(=O)(O)OP(=O)(O)OP(=O)(O)OC[C@H]3O[C@@H](n4ccc(=O)[nH]c4=O)[C@H](O)[C@@H]3O)O2)c(=O)n1 [Denufosol, P^1-(uridine 5′-)-P^4-(2′-deoxycytidine 5′-) tetraphosphate] | 0.0494 | 0.0288 | +0.0745 L | –
CC[C@H]1OC(=O)[C@H](C)[C@@H](O[C@H]2C[C@@](C)(OC)[C@@H](O)[C@H](C)O2)[C@H](C)[C@@H](O[C@@H]2O[C@H](C)C[C@H](N(C)C)[C@H]2O)[C@](C)(O)C[C@@H](C)CN(C)[C@H](C)[C@@H](O)[C@]1(C)O [Macrolide (Azithromycin), azithromycin, reference compound] | 0.0430 | – | – | 0.0430
Pulmozyme: CF medication taken as usual standard of care (alfa dornase) (protein, UniProt P24855 23-282, looked up) Deoxyribonuclease-1: LKIAAFNIQTFGETKMSNATLVSYIVQILSRYDIALVQEVRDSHLTAVGKLLDNLNQDAPDTYHYVVSEPLGRNSYKERYLFVYRPDQVSAVDSYYYDDGCEPCGNDTFNREPAIVRFFSRFTEVREFAIVPLHAAPGDAVAEIDALYDVYLDVQEKWGLEDVMLMGDFNAGCSYVRPSQWSSIRLWTSPTFQWLIPDSADTTATPTHCAYDRIVVAGMLLRGAVVPDSALPFNFQAAYGLSDQLAQAISDHYPVEVMLK | – | – | – | 0.0659
